Laboratory results as given in US20220241260A9, “Pharmaceutical Compositions Of Metabotropic Glutamate 5 Receptor (MGLU5) Antagonists” (F. HOFFMANN-LA ROCHE AG, priority 2010, published 2022).

Experiment: BCS classification
Format: physicochemical
Settings: because of pH dependent solubility in physiological range

BCS class: BCS class 2
SMILES: Cc1nc(C#Cc2ccnc(Cl)c2)c(C)n1-c1ccc(F)cc1 [2-Chloro-4-[1-(4-fluoro-phenyl)-2,5-dimethyl-1H-imidazol-4-ylethynyl]-pyridine]
